Experimental data from patent US5077034A, “Treatment of tumors with 5-radioiodo-2'-deoxyuridine” (priority 1990, dated 1991).

Key:
[1] = test system: murine ovarian tumor (MOT); assay: tumor cell survival after treatment of mouse ascites tumor (MOT); assay type: in vivo, C3HeB/FeJ mice
Procedure: (§1) The murine ovarian tumor (MOT) used in these experiments arose spontaneously in the ovary of a C3H mouse and is maintained in our laboratories by serial intraperitoneal [i.p.] transplantation in female C3HeB/FeJ mice. We have examined the appropriateness of the i.p. route for IUdR administration as a means to (i) bypass the rapid intrahepatic dehalogenation of this agent, and (ii) obtain high tumor to nontumor ratios. In these experiments, mice were injected with 10^6 tumor cells 24 h prior to the i.p. administration of ^125 IUdR [5 injections, 4 h apart]. […] Tumor-to-normal-tissue ratios derived from th biodistribution results ranged from 20 for organs with actively proliferating cells (for example uterus, intestine, stomach) to over 400 for organs with nondividing cells (brain, heart).
(§2) The tumor used in these experiments is the same murine ovarian tumor desoribed above. We have determined the median survival of mice after i.p. challenge with various tumor cell inocula.
The relatively long survival of tumor-bearing mice facilitates quantitative evaluation of tumor cell killing after treatment with ^125 IUdR and can be used to calculate a cellular survival fraction. We have, therefore, studied tumor cell survival as a function of the dose of ^125 IUdR administered i.p. at 4 h intervals beginning 24 h after tumor cell i.p. inoculation [10^5 -10^6 cells].
When mice are treated with four doses of ^125 IUdR at 4-h intervals and the survival fraction plotted as a function of the dose per treatment, a rapid decrease in the tumor cell survival fraction [10^-3 ] is observed at doses of 20 μCi per treatment with the curve being flat at higher levels [FIG. 6]. When seven consecutive injections of ^125 IUdR are given, a similar steep reduction in tumor cell survival is also observed; the plateau in this regimen occurs at a survival fraction of 10^-5.

[2] = catabolism/dehalogenation of IUdR in vivo; details: IUdR escaping from the CNS
9L gliosarcoma [3] = assay: biodistribution of radioactivity 40 h after intracerebral injection in 9L gliosarcoma-bearing and sham-operated rats
[4] = as above; details: rat, right brain
cultured mammalian cells = details: when incorporated into nuclear DNA; in vitro; cited from earlier work
[5] = test system: murine ovarian tumor (MOT); assay: scintigraphic imaging in MOT-bearing and control mice; assay type: in vivo, C3HeB/FeJ mice
9L gliosarcoma [6] = assay: scintigraphic imaging of intracerebral 9L gliosarcoma-bearing and sham-operated rats
[7] = test system: murine ovarian tumor (MOT); assay: median survival of tumor-bearing (MOT ascites) mice; assay type: in vivo, C3HeB/FeJ mice; details: 5 i.p. injections, 4 h intervals, 24 h post i.p. tumor inoculation; FIG. 7; dose-dependent
Procedure: as §1, §2

[8] = later time points (2, 16 and 24 hr), single injection of 300 μCi

O=c1[nH]c(=O)n([C@H]2C[C@H](O)[C@@H](CO)O2)cc1[131I] [IUdR radiolabeled with ^131 I, reference compound]
decrease in tumor cell survival ([1]; equivalent doses): does not result in anv decrease in survival

O=c1[nH]c(=O)n([C@H]2C[C@H](O)[C@@H](CO)O2)cc1I [IUdR, 5-Iodo-2'-deoxyuridine]
catabolism/dehalogenation [2]: rapidly

O=c1[nH]c(=O)n([C@H]2C[C@H](O)[C@@H](CO)O2)cc1[123I] [^123 IUdR, 5-[^123 I/^125 I]iodo-2'-deoxyuridine]
tumor cell survival fraction as a function of dose ([1]; 5 i.p. injections, 4 h intervals, 24 h post i.p. tumor inoculation, FIG. 8): exponential decrease | activity in stomach and bladder (9L gliosarcoma [3]; 40 h, mainly associated with the stomach contents and with urine): high activities | activity in all other normal tissues (9L gliosarcoma [3]; 40 h, with the exception of the stomach and the bladder): low | uptake in a tumor that could be precisely excised (9L gliosarcoma [3]; one animal, 40 h after injection): 12 % of the ID | tissue uptake at 40 h [4]: 0.36 ± 0.14 %ID/g | tissue uptake at 40 h ([4]; uptake in right brain [injected side], sham-operated controls, 40 h after injection, mean±SD): 0.09 ± 0.02 %ID/g | toxicity to cultured mammalian cells (cultured mammalian cells): extremely toxic | abdominal radioactivity, tumor-bearing and control mice ([5]; 1 h after single injection of 300 μCi): focal localization of radioactivity | abdominal activity, animals without tumor [5, 8]: cleared from the abdomen | focal area of abdominal activity, MOT-bearing mice [5, 8]: persisted only in MOT-bearing mice | activity in the thyroid (9L gliosarcoma [6]; 0.1% potassium iodide in drinking water 48 h prior): No activity was seen | activity within the head region at subsequent intervals (9L gliosarcoma [6]; 12-38 h, all tumor-bearing animals): persistence of the activity | bladder and stomach activities at subsequent intervals (9L gliosarcoma [6]; 12-38 h, both groups, mainly associated with stomach contents and urine): still observed in both groups | activity in the head (9L gliosarcoma [6]; 1 h after intracerebral injection, tumor-bearing [n=16] and sham-operated [n=8]): showed activity in the head | clearance of the activity from the head (9L gliosarcoma [6]; all control (sham-operated) animals): ≤ 12 h | activity in the stomach and the bladder (9L gliosarcoma [6]; scintigraphy, 1 h after intracerebral injection): evident | dehalogenation and excretion of free iodine (9L gliosarcoma [6]; suggested by stomach and bladder activity, 1 h): rapid | median survival of tumor-bearing animals [7]: prolongs median survival

O=c1[nH]c(=O)n([C@H]2C[C@H](O)[C@@H](CO)O2)cc1[125I] [^125 IUdR, 5-[^123 I/^125 I]iodo-2'-deoxyuridine]
tumor cell survival fraction ([1]; four i.p. doses at 4-h intervals, 20 μCi per treatment, curve flat at higher levels): 10^-3 | tumor cell survival fraction (plateau) ([1]; seven consecutive i.p. injections): 10^-5 | toxicity to cultured mammalian cells (cultured mammalian cells): extremely toxic
